Reference: PMC5005338, “Escherichia coli Type III Secretion System 2 ATPase EivC Is Involved in the Motility and Virulence of Avian Pathogenic Escherichia coli” (Frontiers in Microbiology, 2016)

Molecular target: EivC (His-EivC) (Escherichia coli, UniProt A0A160EFI3)
Settings: 30 min assay; His-tagged protein

EivC (His-EivC), sequence (A0A160EFI3 entry or part of it): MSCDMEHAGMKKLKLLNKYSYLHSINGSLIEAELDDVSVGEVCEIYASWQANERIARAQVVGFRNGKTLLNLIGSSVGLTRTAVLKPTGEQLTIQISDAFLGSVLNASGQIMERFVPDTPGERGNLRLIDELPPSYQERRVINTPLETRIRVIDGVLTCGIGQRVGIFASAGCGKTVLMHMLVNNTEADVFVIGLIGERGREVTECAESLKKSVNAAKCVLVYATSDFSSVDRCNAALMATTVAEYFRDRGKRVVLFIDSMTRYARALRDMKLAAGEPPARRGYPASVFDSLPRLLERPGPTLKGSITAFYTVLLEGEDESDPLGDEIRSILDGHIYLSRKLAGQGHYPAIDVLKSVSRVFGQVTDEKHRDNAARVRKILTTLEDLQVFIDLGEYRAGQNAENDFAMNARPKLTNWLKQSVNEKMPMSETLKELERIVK

SMILES: Nc1ncnc2c1ncn2[C@@H]1O[C@H](COP(=O)(O)OP(=O)(O)OP(=O)(O)O)[C@@H](O)[C@H]1O [ATP]
- phosphate release, malachite green ATPase assay kit: a His-EivC fusion protein was purified and tested for its ability to hydrolyze ATP
